# Data published in patent US6399607B1, “Aminomethylene amide analogs of pyrazinamide with intracellular antimycobacterial activity against pyrazinamide-resistant mycobacteria combined with a rifamycin” (priority 1999, dated 2002).
# System: M. kansasii
# Test: MIC in modified 7H10 broth against M. kansasii (Tables 3, 4)
# Type: cell-based, Mycobacterium kansasii
# Set-up: unit not given beside the values
# Conditions: Table 3; clinical isolate S; modified 7H10 broth, pH 5.8
row,SMILES,"MIC, M. kansasii S"
1,"CCN(CC)CNC(=O)c1cnccn1 [Compound 2, pyrazine-2-carboxylic acid diethylaminomethyl-amide]",128
2,"O=C(NCN1CCOCC1)c1cnccn1 [Compound 4, (morpholin-4-ylmethyl)-amide]",128
3,"NC(=O)c1cnccn1 [PZA, Pyrazinamide]",2048
4,"CCN(CC)CNC(=O)c1cnc(N(CC)CC)cn1 [Compound 17, 5-diethylamino-pyrazinoic acid diethylaminomethyl-amide]",>128
5,"O=C(NCN1CCCC1)c1cnccn1 [Compound 1, pyrazine-2-carboxylic acid (pyrrolidin-1-ylmethyl)-amide]",128
6,"NC(=O)c1cnc(Cl)cn1 [Compound 5-Chloro-PZA, 5-chloro-pyrazinamide, reference compound]",32

# Same assay, conditions: Table 4; clinical isolate S
row,SMILES,"MIC, M. kansasii S"
1,CCCCN(C)CNC(=O)c1cnccn1 [Compound 6],128
2,CCCCN(CCCC)CNC(=O)c1cnccn1 [Compound 10],>128
3,CCCCN(CC)CNC(=O)c1cnccn1 [Compound 5],>128
4,"CN(CNC(=O)c1cnccn1)Cc1ccccc1 [Compound 8, [(benzyl-methyl-amino)-methyl]-amide]",128
5,"O=C(NCN1CCOCC1)c1cnccn1 [Compound 4, (morpholin-4-ylmethyl)-amide]",128
6,"CN1CCN(CNC(=O)c2cnccn2)CC1 [Compound 7, (piperazin-1-ylmethyl)-amide]",>128
7,"NC(=O)c1cnccn1 [PZA, Pyrazinamide]",2048
8,"CCCN(CCC)CNC(=O)c1cnccn1 [Compound 9, dipropylaminomethyl-amide]",128
9,"O=C(NCN1CCCC1)c1cnccn1 [Compound 1, pyrazine-2-carboxylic acid (pyrrolidin-1-ylmethyl)-amide]",128
10,"NC(=O)c1cnc(Cl)cn1 [Compound 5-Chloro-PZA, 5-chloro-pyrazinamide, reference compound]",32

# System: Mycobacterium avium
# Test: not given
# Conditions: Heifets et al, Am. Rev. Resp. Dis. 134: 1287-1288 (1986); cited from earlier work
row,SMILES,activity against Mycobacterium avium
1,"NC(=O)c1cnccn1 [PZA, Pyrazinamide]",Neither is it active

# System: M. tuberculosis
# Test: microbe, parasite or virus in culture
# Type: cell-based, Mycobacterium tuberculosis
# Set-up: MIC, pansusceptible strain, pH 5.5 / MIC, Pansusceptible strain, pH 6.0 / MIC, Pansusceptible strain, pH 6.8: unit not given here
# Conditions: 7H12 BACTEC broth, pH 6.0; three pansusceptible strains
row,SMILES,"MIC, Pansusceptible strain, pH 6.0"
1,"CCN(CC)CNC(=O)c1cnccn1 [Compound 2, pyrazine-2-carboxylic acid diethylaminomethyl-amide]",100
2,"O=C(NCN1CCCC1)c1cnccn1 [Compound 1, pyrazine-2-carboxylic acid (pyrrolidin-1-ylmethyl)-amide]",100

# Same assay, conditions: 7H12 BACTEC broth, pH 6.8; three pansusceptible strains
row,SMILES,"MIC, Pansusceptible strain, pH 6.8"
1,"CCN(CC)CNC(=O)c1cnccn1 [Compound 2, pyrazine-2-carboxylic acid diethylaminomethyl-amide]",100
2,"O=C(NCN1CCCC1)c1cnccn1 [Compound 1, pyrazine-2-carboxylic acid (pyrrolidin-1-ylmethyl)-amide]",100

# Same assay, conditions: 7H12 broth, pH 6.0 v. 6.8
row,SMILES,difference in MICs under different pH conditions
1,"NC(=O)c1cnccn1 [PZA, Pyrazinamide]",dramatic difference

# Same assay, conditions: Mycobacterium tuberculosis; 7H12 broth, same at pH 6.0 and 6.8
row,SMILES,MIC
1,"O=C(NCN1CCOCC1)c1cnccn1 [MZA, morphazinamide]",100 µg/mL
2,"CCN(CC)CNC(=O)c1cnccn1 [Compound 2, pyrazine-2-carboxylic acid diethylaminomethyl-amide]",100 µg/mL

# Same assay, conditions: pansusceptible strain, pH 5.5
row,SMILES,"MIC, pansusceptible strain, pH 5.5"
1,"O=C(NCN1CCCC1)c1cnccn1 [Compound 1, pyrazine-2-carboxylic acid (pyrrolidin-1-ylmethyl)-amide]",50

# System: Mtb organisms which have been phagocytized
# Test: not given
# Conditions: reduced efficacy after 4 to 7 days; cited from earlier work
row,SMILES,activity in macrophages
1,"NC(=O)c1cnccn1 [PZA, Pyrazinamide]",either weakly or clearly bacteriostatic in macrophages

# System: not given
# Test: not given
# Conditions: cited from earlier work
row,SMILES,pKa
1,"NC(=O)c1cnccn1 [PZA, Pyrazinamide]",0.5

# System: M. tuberculosis
# Test: Murine model of tuberculosis, combination with KRM-1648 (RLZ) (FIG. 2)
# Type: in vivo
# Conditions: mice, in combination with KRM-1648 (Rifalazil, RLZ)
row,SMILES,reduction of CFUs / infection in murine model of tuberculosis
1,"CCN(CC)CNC(=O)c1cnccn1 [Compound 2, pyrazine-2-carboxylic acid diethylaminomethyl-amide]",superior or equivalent to PZA in reducing CFUs
2,"NC(=O)c1cnccn1 [PZA, Pyrazinamide]",effective in reducing infection
3,"O=C(NCN1CCCC1)c1cnccn1 [Compound 1, pyrazine-2-carboxylic acid (pyrrolidin-1-ylmethyl)-amide]",superior or equivalent to PZA in reducing CFUs

# System: M. avium complex
# Test: MIC in modified 7H10 broth against M. avium complex (Tables 3, 4)
# Type: cell-based, Mycobacterium avium
# Set-up: unit not given here
# Conditions: Table 3; ATCC 49601 (serotype 1); modified 7H10 broth, pH 5.8
row,SMILES,"MIC, M. avium complex ATCC 49601"
1,"CCN(CC)CNC(=O)c1cnccn1 [Compound 2, pyrazine-2-carboxylic acid diethylaminomethyl-amide]",128
2,"O=C(NCN1CCOCC1)c1cnccn1 [Compound 4, (morpholin-4-ylmethyl)-amide]",>128
3,"NC(=O)c1cnccn1 [PZA, Pyrazinamide]",>2048
4,"CCN(CC)CNC(=O)c1cnc(N(CC)CC)cn1 [Compound 17, 5-diethylamino-pyrazinoic acid diethylaminomethyl-amide]",>128
5,"O=C(NCN1CCCC1)c1cnccn1 [Compound 1, pyrazine-2-carboxylic acid (pyrrolidin-1-ylmethyl)-amide]",>128
6,"NC(=O)c1cnc(Cl)cn1 [Compound 5-Chloro-PZA, 5-chloro-pyrazinamide, reference compound]",32

# Same assay, conditions: Table 3; strain 101 (serotype 1); modified 7H10 broth, pH 5.8
row,SMILES,"MIC, M. avium complex 101"
1,"CCN(CC)CNC(=O)c1cnccn1 [Compound 2, pyrazine-2-carboxylic acid diethylaminomethyl-amide]",128
2,"O=C(NCN1CCOCC1)c1cnccn1 [Compound 4, (morpholin-4-ylmethyl)-amide]",>128
3,"NC(=O)c1cnccn1 [PZA, Pyrazinamide]",>2048
4,"CCN(CC)CNC(=O)c1cnc(N(CC)CC)cn1 [Compound 17, 5-diethylamino-pyrazinoic acid diethylaminomethyl-amide]",(>128
5,"O=C(NCN1CCCC1)c1cnccn1 [Compound 1, pyrazine-2-carboxylic acid (pyrrolidin-1-ylmethyl)-amide]",>128
6,"NC(=O)c1cnc(Cl)cn1 [Compound 5-Chloro-PZA, 5-chloro-pyrazinamide, reference compound]",32

# Same assay, conditions: Table 4; ATCC 49601
row,SMILES,"MIC, M. avium complex ATCC 49601"
1,CCCCN(C)CNC(=O)c1cnccn1 [Compound 6],>128
2,CCCCN(CCCC)CNC(=O)c1cnccn1 [Compound 10],>128
3,CCCCN(CC)CNC(=O)c1cnccn1 [Compound 5],>128
4,"CN(CNC(=O)c1cnccn1)Cc1ccccc1 [Compound 8, [(benzyl-methyl-amino)-methyl]-amide]",128
5,"O=C(NCN1CCOCC1)c1cnccn1 [Compound 4, (morpholin-4-ylmethyl)-amide]",>128
6,"CN1CCN(CNC(=O)c2cnccn2)CC1 [Compound 7, (piperazin-1-ylmethyl)-amide]",>128
7,"NC(=O)c1cnccn1 [PZA, Pyrazinamide]",>2048
8,"CCCN(CCC)CNC(=O)c1cnccn1 [Compound 9, dipropylaminomethyl-amide]",>128
9,"O=C(NCN1CCCC1)c1cnccn1 [Compound 1, pyrazine-2-carboxylic acid (pyrrolidin-1-ylmethyl)-amide]",>128
10,"NC(=O)c1cnc(Cl)cn1 [Compound 5-Chloro-PZA, 5-chloro-pyrazinamide, reference compound]",32

# Same assay, conditions: Table 4; strain 101
row,SMILES,"MIC, M. avium complex 101"
1,CCCCN(C)CNC(=O)c1cnccn1 [Compound 6],128
2,CCCCN(CCCC)CNC(=O)c1cnccn1 [Compound 10],>128
3,CCCCN(CC)CNC(=O)c1cnccn1 [Compound 5],128
4,"CN(CNC(=O)c1cnccn1)Cc1ccccc1 [Compound 8, [(benzyl-methyl-amino)-methyl]-amide]",128
5,"O=C(NCN1CCOCC1)c1cnccn1 [Compound 4, (morpholin-4-ylmethyl)-amide]",128
6,"CN1CCN(CNC(=O)c2cnccn2)CC1 [Compound 7, (piperazin-1-ylmethyl)-amide]",>128
7,"NC(=O)c1cnccn1 [PZA, Pyrazinamide]",>2048
8,"CCCN(CCC)CNC(=O)c1cnccn1 [Compound 9, dipropylaminomethyl-amide]",128
9,"O=C(NCN1CCCC1)c1cnccn1 [Compound 1, pyrazine-2-carboxylic acid (pyrrolidin-1-ylmethyl)-amide]",>128
10,"NC(=O)c1cnc(Cl)cn1 [Compound 5-Chloro-PZA, 5-chloro-pyrazinamide, reference compound]",32

# System: M. tuberculosis
# Test: MIC in modified 7H10 broth against M. tuberculosis (Table 3)
# Type: cell-based, Mycobacterium tuberculosis
# Set-up: MIC, M. tuberculosis ATCC 35801 / MIC, M. tuberculosis ATCC 27294: unit not given here
# Conditions: ATCC 27294 (H37RV, PZA susceptible), pH 5.8
row,SMILES,"MIC, M. tuberculosis ATCC 27294"
1,"CCN(CC)CNC(=O)c1cnccn1 [Compound 2, pyrazine-2-carboxylic acid diethylaminomethyl-amide]",16
2,"O=C(NCN1CCOCC1)c1cnccn1 [Compound 4, (morpholin-4-ylmethyl)-amide]",32
3,"NC(=O)c1cnccn1 [PZA, Pyrazinamide]",16
4,"CCN(CC)CNC(=O)c1cnc(N(CC)CC)cn1 [Compound 17, 5-diethylamino-pyrazinoic acid diethylaminomethyl-amide]",64
5,"O=C(NCN1CCCC1)c1cnccn1 [Compound 1, pyrazine-2-carboxylic acid (pyrrolidin-1-ylmethyl)-amide]",16
6,"NC(=O)c1cnc(Cl)cn1 [Compound 5-Chloro-PZA, 5-chloro-pyrazinamide, reference compound]",16

# Same assay, conditions: ATCC 35801, pH 5.8
row,SMILES,"MIC, M. tuberculosis ATCC 35801"
1,"CCN(CC)CNC(=O)c1cnccn1 [Compound 2, pyrazine-2-carboxylic acid diethylaminomethyl-amide]",2
2,"O=C(NCN1CCOCC1)c1cnccn1 [Compound 4, (morpholin-4-ylmethyl)-amide]",16
3,"NC(=O)c1cnccn1 [PZA, Pyrazinamide]",32
4,"CCN(CC)CNC(=O)c1cnc(N(CC)CC)cn1 [Compound 17, 5-diethylamino-pyrazinoic acid diethylaminomethyl-amide]",16
5,"O=C(NCN1CCCC1)c1cnccn1 [Compound 1, pyrazine-2-carboxylic acid (pyrrolidin-1-ylmethyl)-amide]",8
6,"NC(=O)c1cnc(Cl)cn1 [Compound 5-Chloro-PZA, 5-chloro-pyrazinamide, reference compound]",16
